Measurements reported in publication PMC7734590, “Identification of a Selective RelA Inhibitor Based on DSE-FRET Screening Methods” (International Journal of Molecular Sciences, 2020).

Key:
p52 = target: T1, p52 (Homo sapiens, UniProt Q00653); test: DSE-FRET p52–DNA binding inhibition; type: biochemical
T1 sequence (Q00653 1-454 limits assumed): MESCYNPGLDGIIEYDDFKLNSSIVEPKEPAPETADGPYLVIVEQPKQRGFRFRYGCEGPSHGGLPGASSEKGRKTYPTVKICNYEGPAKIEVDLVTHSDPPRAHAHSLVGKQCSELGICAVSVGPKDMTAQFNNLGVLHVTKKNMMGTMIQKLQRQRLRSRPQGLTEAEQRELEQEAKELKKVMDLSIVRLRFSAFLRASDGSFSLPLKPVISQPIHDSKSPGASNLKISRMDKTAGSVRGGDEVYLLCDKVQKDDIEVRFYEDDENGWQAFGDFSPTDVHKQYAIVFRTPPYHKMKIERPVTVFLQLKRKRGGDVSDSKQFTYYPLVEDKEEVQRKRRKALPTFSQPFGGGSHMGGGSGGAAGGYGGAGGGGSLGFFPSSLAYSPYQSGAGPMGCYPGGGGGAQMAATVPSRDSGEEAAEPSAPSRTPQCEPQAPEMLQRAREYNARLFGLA
Experimental: (§2) Plate-based (384 scale) DNA-binding experiments were carried out with 0.1 µL of 2 mM or 1 mg/mL compound, 2 µL of 80 nM NF-D1 (consisting of NF-01F and NF-14D), 1 µL of 20 ng/µL poly dI-dC, and 6.9 µL of 3.2 pmol protein in binding buffer (10 mM 4-(2-hydroxyethyl)-1-piperazineethanesulfonic acid (HEPES)–NaOH pH 7.9, 50 mM KCl, 0.1 mM ethylenediaminetetraacetic acid (EDTA), 2.5 mM dithiothreitol (DTT), 10% glycerol, and 0.05% Nonidet P40). The plates were incubated for 30 min at room temperature, after which 10 µL of NF-D2 (consisting of NF-02 and NF-13) was added. The plates were centrifuged at 1000 rpm for 30 s, followed by shaking for 30 s using a plate shaker (Biotec). Fluorescence was measured at 528 nm, after excitation at 485 nm, using a multiplate reader (Biotec) over a period of 60 min.

[1] = tested on: NF-κB–DNA complexes in PK8 nuclear extract; test: EMSA with nuclear extracts from TNF-α-treated PK8 cells; type: biochemical, human; settings: 500 µM A55
Experimental: (§1) For EMSA using nuclear extract, PK8 cells were treated with TNF-α (50 ng/mL) for 10 min before nuclear protein extraction. The cells were washed with ice-cold phosphate-buffered saline (PBS), followed by buffer A (10 mM HEPES–NaOH, pH 7.9, 10 mM KCl, 1.5 mM MgCl2, 0.5 mM DTT, and 0.5 mM phenylmethanesulfonyl fluoride (PMSF)). After 15 min on ice, the cell suspension was centrifuged at 4 °C for 3 min at 2000 rpm, and the resultant cell pellets were resuspended in buffer A. Cells were homogenized using Dounse homogenizer type A (tight, 50 stroke) on ice. Homogenates were centrifuged at 4 °C for 10 min at 5000 rpm, and the resultant nuclear protein pellets were resuspended in buffer C (20 mM HEPES–NaOH pH 7.9, 600 mM KCl, 1.5 mM MgCl2, 25% glycerol, 0.2 mM EDTA, 0.5 mM DTT, and 0.5 mM PMSF). The nuclear proteins were incubated for 1 h on ice with intermittent tapping followed by 15 min of centrifugation at 18,000 rpm (4 °C). The supernatants were dialyzed using a Slide-A-Layzer Dialysis cassette 3500MW (Thermo: 66110) with buffer D (20 mM HEPES–NaOH pH 7.9, 100 mM KCl, 20% glycerol, 0.2 mM EDTA, 0.5 mM DTT, and 0.5 mM PMSF). The dialysis products were then aliquoted, snap-frozen, and stored at −80 °C.

[2] = tested on: T2, NF-κB–DNA complexes in PK8 nuclear extract; test: as above; type: biochemical, human; settings: TNF-α 50 ng/mL 10 min
T2 construct: nuclear extracts from tumor necrosis factor (TNF)-α-treated PK8 cells; endogenous in cells; host or cells: PK8 (human pancreatic carcinoma), TNF-α 50 ng/mL for 10 min, nuclear extract
Experimental: as §1

p50 = target: T3, p50 (Homo sapiens, UniProt P19838); test: DSE-FRET p50–DNA binding inhibition; type: biochemical
T3 sequence (P19838 1-433 limits assumed): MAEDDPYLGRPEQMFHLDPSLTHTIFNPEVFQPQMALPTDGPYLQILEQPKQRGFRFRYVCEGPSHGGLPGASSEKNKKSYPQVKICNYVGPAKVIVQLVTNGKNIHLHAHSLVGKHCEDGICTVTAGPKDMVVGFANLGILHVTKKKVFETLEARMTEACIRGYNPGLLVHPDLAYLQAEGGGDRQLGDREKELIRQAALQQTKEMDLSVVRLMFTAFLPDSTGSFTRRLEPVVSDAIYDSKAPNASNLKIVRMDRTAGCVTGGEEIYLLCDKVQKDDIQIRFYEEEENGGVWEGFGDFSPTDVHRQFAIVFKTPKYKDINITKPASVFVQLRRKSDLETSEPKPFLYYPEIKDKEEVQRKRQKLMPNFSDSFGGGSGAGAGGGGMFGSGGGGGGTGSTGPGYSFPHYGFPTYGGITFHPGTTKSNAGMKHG
Experimental: as §2

In the case of Cc1cc(O)n(CC(=O)O)c(=O)c1C(N)=O [A55, 2-(3-carbamoyl-6-hydroxy-4-methyl-2-oxopyridin-1(2H)-yl) acetic acid], the “p52–DNA binding inhibition at 50 µM” value (p52; 96-well plates, 50 µM) is reported as “inhibited only RelA–DNA binding”, the inhibition at 50 µM (p52; 96 well plate, 50 µM, 120 min-0 min, read-out: Kinetic assay @ 50 µM p52 Inhibition % ΔRFU(120 min-0 min)) is reported as 6.66% and the IC50 (p52; DSE-FRET) is reported as over 100 µM. The “EMSA band shift, other protein–DNA complexes (lower band)” value [1] was “did not affect the lower band”, the “EMSA band shift, RelA–DNA complex (upper band)” value [2] was “Only the upper band disappeared” and the IC50 (p50) was over 100 µM.
